{"source": "patent US20030207933A1", "about": "“Compositions and methods for increasing the sensitivity of apoptosis-resistant tumor cells to inducers of apoptosis” (priority 2002, published 2003)", "key": {"[1]": {"test_system": "Wehi-Hsp70 fibrosarcoma cells", "assay": "20 h DNA fragmentation assay in Wehi cells overexpressing Hsp70", "assay_type": "cell-based, murine", "settings": "etoposide + 20 μM W-188, FIG. 8", "experimental": "This finding was confirmed using the Wehi murine fibrosarcoma cell line that is transfected with and overexpresses Hsp70, as described previously (Jaattela, M., et al., EMBO J. 1998, 17:6124). Wehi transfected with Hsp70 or vector control were cultured with etoposide ±20 μM W-188 in a 20 h DNA fragmentation assay."}, "[2]": {"test_system": "normal rat intestinal epithelial cells", "assay": "Toxic effects of etoposide on normal intestinal epithelial cells", "assay_type": "cell-based", "excerpt": "LY-ar was highly resistant to apoptosis induced by y-radiation. […] The apparent selective effects of W-188 may be due to the preferential intracellular accumulation of porphyrin compounds in transformed cells as opposed to normal cells reported previously (Bugelski, P. J., et al., Cancer Res., 1981, 41:4606)."}}, "data": [{"smiles": "CCC1=C(C)C(/C=C2\\NC(=O)C(C)=C2CC)=NC/1=C\\c1[nH]c(/C=C2\\NC(=O)C(C)=C2CC)c(C)c1CC", "note": "[W-188, etiobiliverdin-IV]", "values": [{"measurement": "Etoposide-induced DNA fragmentation", "setting": "[1]", "value": "underwent DNA fragmentation at levels comparable to that observed with the Wehi-vector control"}, {"measurement": "Effect on toxic effects of etoposide on normal cells", "setting": "[2]", "value": "did not increase the toxic effects of etoposide"}]}]}
